Measured values from paper PMC7997155, “Permeability of the Cyanotoxin Microcystin-RR across a Caco-2 Cells Monolayer” (Toxins, 2021).
Starred links: 1 amine or outer side, 2 acyl side, 3 side chain; linkers in the order of their positions; H or OH if unused. Positions of bridges follow the written chain, without caps; N, C: chain ends. Non-standard residues stand in square brackets, D forms with d. Residues, ends and D or L forms follow the SMILES beside them. Adda = CO[C@@H](Cc1ccccc1)[C@@H](C)/C=C(C)/C=C/[C@H](N[*:1])[C@H](C)C(=O)[*:2]; dAsp(3S-Me) = C[C@H](C(=O)[*:3])[C@@H](N[*:1])C(=O)[*:2]; d(γGlu) = O=C(O)[C@@H](CCC(=O)[*:2])N[*:1]; NMeDha = C=C(NC)C(=O)O

Legend:
[1] = Binding to plastic (preliminary experiment); assay type: in vitro ADME
Protocol: Experiments were performed as previously described, with a few modifications, described as follows. Four solutions of MC-RR (1, 10, 25, and 55 µM) were prepared in the transport buffer (HBSS, 4-(2-Hydroxyethyl)piperazine-1-ethanesulfonic acid (HEPES) 5 mM, pH 7.4) in glass vials and loaded into the donor compartments: 300 µL in compartments A (for A–B transport experiments) and 1000 µL in compartment B (for B–A transport experiments). The final concentration of methanol in the transport buffer for all MC-RR solutions was set at 1.3%, which was previously shown not to alter the integrity of Caco-2 cell monolayers. In a preliminary experiment, the binding of MC-RR to plastic was checked and considered negligible (data not shown). At different time points (1, 2, 4, 6, and 24 h for A–B transport experiments and 1, 2, 4, and 6 h for B–A transport experiments), the whole volume of each compartment was harvested and stored in glass vials at −20 °C until analysis. Due to the toxicity of methanol 1.3% when applied in compartment B for 24 h, this time point was not performed for B–A experiments. Only Caco-2 cell monolayers with a TEER > 250 ohm.cm² before and after transport experiments were used. […]. These threshold values correspond to those preconized by the European Center for the Validation of Alternatives Methods. Four independent experiments were performed.

Caco-2 cell monolayer = assay type: in vitro ADME, human
Caco-2 cell monolayers = details: Caco-2 monolayers; ref historical data generated in our laboratory; cited from earlier work
Protocol: Experiments were performed as previously described, with a few modifications, described as follows. Four solutions of MC-RR (1, 10, 25, and 55 µM) were prepared in the transport buffer (HBSS, 4-(2-Hydroxyethyl)piperazine-1-ethanesulfonic acid (HEPES) 5 mM, pH 7.4) in glass vials and loaded into the donor compartments: 300 µL in compartments A (for A–B transport experiments) and 1000 µL in compartment B (for B–A transport experiments). The final concentration of methanol in the transport buffer for all MC-RR solutions was set at 1.3%, which was previously shown not to alter the integrity ...

For `C=C1C(=O)N[C@H](C)C(=O)N[C@@H](CCCNC(=N)N)C(=O)N[C@@H](C(=O)O)[C@H](C)C(=O)N[C@@H](CCCNC(=N)N)C(=O)N[C@@H](/C=C/C(C)=C/[C@H](C)[C@H](Cc2ccccc2)OC)[C@H](C)C(=O)N[C@@H](C(=O)O)CCC(=O)N1C` [MC-RR, microcystin-RR] (R[Adda][d(γGlu)][NMeDha][dA]R[dAsp(3S-Me)]-OH; lactam N-7), the Binding to plastic [1] was “negligible”, the “Amount detected in the apical compartment” value (Caco-2 cell monolayer) was “below the lower LOQ” and the “Amount detected in the basolateral compartment” value (Caco-2 cell monolayer) was “below the lower LOQ”. The “Decrease of MC-RR amounts in the basolateral (donor) compartment” value (Caco-2 cell monolayer) was 25 % of the loaded amount and the “Involvement of an active efflux mechanism (A–B versus B–A Papp)” value (Caco-2 cell monolayer) was “no involvement of an active efflux mechanism”.
For lucifer yellow, the “Papp of lucifer yellow corresponding to a TEER value of 250 ohm.cm²” value (Caco-2 cell monolayers) is listed as 0.6 ×10⁻⁶ cm/s.
